Test results: article PMC4641600, “Novel Activities of Select NSAID R-Enantiomers against Rac1 and Cdc42 GTPases” (PLoS ONE, 2015)
Structures can show the parent of a compound that is named as a salt.

Legend:
[1] = tested on: Rab2 wt, Rab7 wt, Cdc42 wt, Cdc42Q61L, H-Ras wt, H-RasG12V, Rac1 wt and Rac1Q61L; assay: Primary multiplex screen, BODIPY-FL-GTP binding on bead-bound GTPases (flow cytometry); details: for Primary Screen Hit: single dose 10 µM, change in BODIPY-GTP binding on any one GTPase
[2] = target: Cdc42Q61L activating mutant (Homo sapiens, UniProt P60953, Q61L); assay: Dose response, BODIPY-GTP binding; details: 10 nM to 100 µM; read-out: Cdc42 (act) EC50
Cdc42 wt = Cdc42 wt (Homo sapiens, UniProt P60953); assay: Dose response, BODIPY-GTP binding; details: 10 nM to 100 µM
[3] = tested on: Rac1 membrane localization; assay: Rac1 immunolocalization, OvCa433 cells; assay type: cell-based, human; details: for Rac PM Localiz.: immunofluorescence quantified using ImageJ; for Rac1 membrane localization: 300 μM
H-Ras wt = H-Ras wt (Homo sapiens, UniProt P01112); assay: Dose response, BODIPY-GTP binding; details: 10 nM to 100 µM
Protocol: (§1) For multiplex analyses of small GTPases, 4 μm diameter glutathione-beads (GSH-beads) distinguished by seven different intensities of red fluorescence were used according to our previously described protocols. The GST-GTPases included the following eight Ras-related small GTPases: Rab2 wt, Rab7 wt, Cdc42 wt, Cdc42Q61L activating mutant, H-Ras wt, H-RasG12V, Rac1 wt and Rac1Q61L activating mutant. Briefly, Prestwick Chemical Library® compounds were tested at 10 μM compound and 1% DMSO final concentrations. After a 10 min pre-incubation with the compound BODIPY- FL-GTP (100 nM final) was added to each well and bead associated fluorescence was measured. Sample analysis was conducted with a HyperCyt® high throughput flow cytometry platform. Flow cytometric light scatter at 488 nm and fluorescence emission at 530 +/− 20 nm (FL1) and 665 +/− 10 nm (FL8) were collected on a Cyan ADP flow cytometer (Beckman Coulter, Fullerton, CA). IDLQuery software was used to determine the compound activity in each well. Gating based on forward scatter (FS) and side scatter (SS) parameters was used to identify singlet bead populations. Gating based on FL8 emission distinguishes the beads coated with different proteins, and the median FL1 fluorescence per bead population were calculated. A compound was considered a “potential active” if the change in BODIPY-FL-GTP binding differed greater than 20% from that measured in DMSO treated controls.
(§2) Test compounds identified for follow-up after the primary screen were tested at dilutions ranging from 10 nM to 100 μM final concentration against individual GTPases in multiplex and single-plex assays. Compounds tested in dose response assays were serially diluted 1:3 a total of eight times from a starting concentration of 10 mM giving a 9-point dilution series in DMSO.
(§3) bConfirmatory screens entailed dose response assays conducted in a multiplex format with eight GTPases tested as for primary screen. BODIPY-GTP-binding activity was
(§4) measured in the presence of 10 nM to 100 µM of each of 11 test compounds (4 primary screen hits and 7 additional NSAIDs considered to have chemical similarity to GTPase
(§5) active compounds). GST-GFP coated beads served as a control to detect non-specific dissociation or denaturation caused by compound addition–none of the tested NSAIDs had
(§6) any effect on bead-GST-protein binding. EC50 values were determined using Prism to determine dose response fits as shown in Figure 1 of main text; fits have R2 > 0.9. Active
(§7) compounds based on same definition used as in primary screena. […]

H-RasG12V = H-RasG12V (Homo sapiens, UniProt P01112, G12V); assay: Dose response, BODIPY-GTP binding; details: 10 nM to 100 µM
Protocol: as §1, §2, §3, §4, §5, §6, §7
(§8) ‡A well-characterized selective Cdc42 inhibitor served as a positive control.

human COX-1 = target: T1, human COX-1 (Homo sapiens, UniProt P23219); assay: Cyclooxygenase assay (CEREP), PGE2 formation; assay type: biochemical
T1 construct: purchased CEREP Laboratories (contract assay); host or cells: Sf-9

Cdc42 [4] = target: T2, Cdc42 (Mus musculus, UniProt P60766); assay: GLISA, Swiss 3T3 cells; assay type: cell-based; details: at 10 μM
T2 construct: endogenous in cells; host or cells: Swiss 3T3

Rac1 [5] = target: T3, Rac1 (Homo sapiens, UniProt P63000); assay: G-trap flow cytometric effector binding assay, HeLa cells; assay type: cell-based; details: ketorolac enantiomers
T3 construct: endogenous in cells; host or cells: HeLa

Rac1 [6] = target: T4, Rac1 (Mus musculus, UniProt P63001); assay: GLISA, Swiss 3T3 cells; assay type: cell-based; details: at 50 μM
T4 construct: endogenous in cells; host or cells: Swiss 3T3

Cdc42 [7] = target: T5, Cdc42 (Homo sapiens, UniProt P60953); assay: G-trap flow cytometric effector binding assay, HeLa cells; assay type: cell-based; details: ketorolac enantiomers, EGF stimulation, read-out: EC50 against Cdc42
T5 construct: endogenous in cells; host or cells: HeLa

human COX-2 = target: T6, human COX-2 (Homo sapiens, UniProt P35354); assay: Cyclooxygenase assay (CEREP), PGE2 formation; assay type: biochemical; details: recombinant enzyme, 4 μM arachidonic acid
T6 construct: purchased CEREP Laboratories (contract assay); host or cells: Sf-9
T6 sequence (P35354 18-604): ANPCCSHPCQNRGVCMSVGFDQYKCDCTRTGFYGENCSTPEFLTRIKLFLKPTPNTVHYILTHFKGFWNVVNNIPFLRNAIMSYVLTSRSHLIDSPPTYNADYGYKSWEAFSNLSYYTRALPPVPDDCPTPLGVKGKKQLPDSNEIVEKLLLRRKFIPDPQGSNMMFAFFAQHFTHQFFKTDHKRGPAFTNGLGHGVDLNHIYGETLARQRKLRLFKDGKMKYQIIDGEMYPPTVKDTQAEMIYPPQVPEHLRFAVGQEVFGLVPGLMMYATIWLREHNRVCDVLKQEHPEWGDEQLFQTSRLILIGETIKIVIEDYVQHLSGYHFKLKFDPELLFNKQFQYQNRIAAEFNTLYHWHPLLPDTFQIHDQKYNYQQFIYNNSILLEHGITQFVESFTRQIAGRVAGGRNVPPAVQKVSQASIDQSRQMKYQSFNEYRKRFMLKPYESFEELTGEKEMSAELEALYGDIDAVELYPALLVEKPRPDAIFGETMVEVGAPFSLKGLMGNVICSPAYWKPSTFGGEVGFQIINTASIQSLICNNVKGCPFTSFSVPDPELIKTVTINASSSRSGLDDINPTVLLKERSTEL

[8] = tested on: migration Rac1/Cdc42 dependent; assay: Migration IC50 (Table F); assay type: cell-based; details: ketorolac, calculated by GraphPad Prism5; read-out: IC50 migration Rac1/Cdc42 dependent (est)
[9] = tested on: Tiam1 membrane localization; assay: Tiam1 immunolocalization, OvCa433 cells; assay type: cell-based, human
Protocol: OvCa433 were plated on coverslips, treated with 300 μM NSAIDs for 1 h, fixed with 3% paraformaldehyde and immunostained for Rac1 or Tiam1. Actin was visualized with rhodamine phalloidin from Invitrogen (F432). Cells were imaged on a Zeiss LSM510 using a 63x objective and quantified using Image J.
Rac1 and Tiam1 antibodies were confirmed in our hands to recognize single protein species of the predicted molecular weight by immunoblot.

Rab7 = Rab7 (Homo sapiens, UniProt P51149); assay: Dose response, BODIPY-GTP binding; details: 10 nM to 100 µM
Ras-related GTPases = assay: Confirmatory dose response assays on eight Ras-related GTPases; assay type: binding; details: for activity against the GTPases in confirmatory dose response assays (words): 10 nM to 100 µM
Protocol: as §1, §2, §3, §4, §5, §6, §7, §8

[10] = tested on: Rac1 and Tiam1 protein levels; assay: Immunoblot of protein levels; assay type: cell-based, human
Protocol: Cells were stimulated with EGF at a final concentration of 1 nM for 10 min. Cells were lysed in a RIPA buffer consisting of 50 mM Tris pH 7.4, 1% NP-40, 0.25% sodium deoxycholate, 150 mM NaCl, 1 mM EDTA, 1 mM PMSF, 1 mM sodium vanadate, 10 mM sodium fluoride, 1 μg/mL each of pepstatin, aprotinin and leupeptin, 10 mM sodium pyrophosphate and 10 mM beta-glycerophosphate.
N = 3. See also Figure D in S1 File for time dependent loss of Rac1 membrane localization. N = 3 (B) Quantification of image intensity using Image J of 3 representative confocal images as shown in panel (A) containing 20–30 cells/field normalized to actin and untreated controls. (C) Western blot analyses of lysates from cells treated with 300 μM compound as indicated for 24 h as compared to untreated controls. […] Blots were probed for Tiam1 (200 kDa), GAPDH (37 kDa), Rac1 (20 kDa), as a loading control. (D) Quantification of image intensity using Image J. Each marker was normalized to GAPDH and untreated controls. N = 3.

Rab2 = Rab2 (Homo sapiens, UniProt P61019); assay: Dose response, BODIPY-GTP binding; details: 10 nM to 100 µM
[11] = target: Rac1Q61L activating mutant (Homo sapiens, UniProt P63000, Q61L); assay: Dose response, BODIPY-GTP binding; details: 10 nM to 100 µM; read-out: Rac1 (act) EC50
Rac1 wt = Rac1 wt (Homo sapiens, UniProt P63000); assay: Dose response, BODIPY-GTP binding; details: 10 nM to 100 µM

Sequence of Cdc42 wt (P60953 whole entry): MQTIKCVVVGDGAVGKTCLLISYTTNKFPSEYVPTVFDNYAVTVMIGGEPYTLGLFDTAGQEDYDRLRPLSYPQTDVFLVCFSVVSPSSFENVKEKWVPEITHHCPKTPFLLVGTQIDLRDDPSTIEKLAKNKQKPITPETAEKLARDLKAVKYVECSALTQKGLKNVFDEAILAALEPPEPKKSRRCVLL
Sequence of Rab7 (P51149 whole entry, species assumed): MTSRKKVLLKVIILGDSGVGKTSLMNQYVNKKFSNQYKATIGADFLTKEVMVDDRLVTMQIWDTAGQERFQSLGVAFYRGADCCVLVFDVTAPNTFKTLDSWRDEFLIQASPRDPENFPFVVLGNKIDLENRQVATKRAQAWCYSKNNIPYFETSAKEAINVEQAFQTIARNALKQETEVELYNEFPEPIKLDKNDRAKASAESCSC
T1 sequence (P23219 24-599): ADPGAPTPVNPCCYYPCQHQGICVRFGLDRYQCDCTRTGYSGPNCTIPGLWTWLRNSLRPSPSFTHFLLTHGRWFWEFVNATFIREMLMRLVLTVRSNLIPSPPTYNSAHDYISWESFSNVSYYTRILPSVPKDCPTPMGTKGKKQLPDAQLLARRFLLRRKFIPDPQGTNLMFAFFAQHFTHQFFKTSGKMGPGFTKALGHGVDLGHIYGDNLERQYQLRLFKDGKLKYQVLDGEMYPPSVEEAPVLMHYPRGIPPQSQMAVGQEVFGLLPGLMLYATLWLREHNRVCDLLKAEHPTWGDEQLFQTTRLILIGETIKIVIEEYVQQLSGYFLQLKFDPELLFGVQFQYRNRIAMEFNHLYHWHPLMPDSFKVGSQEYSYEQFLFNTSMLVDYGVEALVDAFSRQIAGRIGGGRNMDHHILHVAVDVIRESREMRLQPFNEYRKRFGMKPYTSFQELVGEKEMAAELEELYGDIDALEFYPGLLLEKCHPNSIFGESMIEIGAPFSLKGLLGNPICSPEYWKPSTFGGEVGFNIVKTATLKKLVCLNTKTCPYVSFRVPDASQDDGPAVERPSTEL
Sequence of Cdc42Q61L activating mutant (P60953 whole entry Q61L): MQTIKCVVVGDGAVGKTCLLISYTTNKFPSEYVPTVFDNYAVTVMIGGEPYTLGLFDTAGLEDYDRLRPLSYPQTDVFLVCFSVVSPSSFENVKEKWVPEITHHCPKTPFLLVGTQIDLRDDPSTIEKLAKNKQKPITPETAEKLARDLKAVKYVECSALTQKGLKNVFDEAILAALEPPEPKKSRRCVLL
Sequence of Rab2 (P61019 whole entry, species assumed): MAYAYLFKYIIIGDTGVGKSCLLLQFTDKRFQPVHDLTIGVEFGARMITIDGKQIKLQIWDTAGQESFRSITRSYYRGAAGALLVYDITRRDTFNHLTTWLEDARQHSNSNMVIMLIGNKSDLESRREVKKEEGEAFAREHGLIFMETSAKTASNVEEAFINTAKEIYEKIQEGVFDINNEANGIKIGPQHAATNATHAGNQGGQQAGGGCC
T5 sequence (P60953 whole entry): as the sequence (P60953 whole entry) above
T2 sequence (P60766 whole entry): as the sequence (P60953 whole entry) above

## CC(C)Cc1ccc([C@H](C)C(=O)O)cc1 [S-(+)-Ibuprofen, (S)-(+)-Ibuprofen]
[1]; 10 μM compound
  primary screen outcome: positive
[1]
  Primary Screen Hit: Active
[2]
  EC50: 6.41 µM
Cdc42 wt
  Cdc42 wt EC50: inactive
[3]; assays performed with 0.1% DMSO
  Rac PM Localiz.: 78%
H-Ras wt
  H-Ras wt EC50: inactive
H-RasG12V
  H-Ras (act) EC50: inactive

## O=C(c1ccccc1)c1ccc2n1CC[C@@H]2C(=O)O [S-ketorolac]
Human COX-1; for cyclooxygenases, S-enantiomer relative to R-enantiomer
  eudismic ratio (EC50/EC50): 100
Human COX-1; recombinant enzyme, 4 μM arachidonic acid
  IC50: < 0.01 µM
Cdc42 [4]
  inhibition of Cdc42: non-inhibitory
Rac1 [5]
  efficacy against Rac1: < 50%
Rac1 [6]
  inhibition of Rac1: non-inhibitory
Cdc42 [7]
  EC50: > 10 µM
Human COX-2
  IC50: 0.085 µM
[8]
  IC50: > 100 µM

## COc1ccc2cc([C@H](C)C(=O)O)ccc2c1 [S-naproxen]
[9]; 300 μM
  Tiam1 membrane localization: only slightly reduced
[9]; immunofluorescence quantified using ImageJ
  Tiam1 GEF PM localiz.: 65%
Rab7
  Rab7 EC50: inactive
Ras-related GTPases
  times less active than the R-enantiomer: 10–20 times
  activity against the GTPases in confirmatory dose response assays (words): varying activity levels
[3]
  Rac1 membrane localization: no effect
  Rac PM Localiz.: 87%
H-Ras wt
  H-Ras wt EC50: inactive
[10]; 300 μM, 24 h, immunoblot
  total Rac1 or Tiam1 protein levels: did not alter
[10]; immunoblot analysis
  Rac protein expression: No change
H-RasG12V
  H-Ras (act) EC50: inactive
Rab2
  Rab2 EC50: inactive

## CSc1ccc(/C=C2/C(C)=C(CC(=O)O)c3cc(F)ccc32)cc1 [Sulindac sulfide]
Rab7
  Rab7 EC50: inactive
[2]
  EC50: 48.6 µM
Ras-related GTPases
  activity against the GTPases in confirmatory dose response assays (words): varying activity levels
Cdc42 wt
  EC50: > 100 µM
H-Ras wt
  H-Ras wt EC50: inactive
H-RasG12V
  H-Ras (act) EC50: inactive
Rab2
  Rab2 EC50: inactive
[11]
  EC50: 53 µM
Rac1 wt
  EC50: 54 µM

## CC1=C(CC(=O)O)c2cc(F)ccc2/C1=C\c1ccc([S+](C)[O-])cc1 (stereo not shown) [Sulindac]
[1]
  Primary Screen Hit: Inactive

## CC(C(=O)O)c1ccc(C(=O)c2cccs2)cc1 (stereo not shown) [Suprofen]
[1]
  Primary Screen Hit: Inactive

## CC(C(=O)O)c1ccc(C(=O)c2ccccc2)s1 (stereo not shown) [Tiaprofenic acid]
[1]
  Primary Screen Hit: Inactive

## Cc1c(Cl)cccc1Nc1ccccc1C(=O)O [Tolfenamic acid]
[1]
  Primary Screen Hit: Inactive

## Cc1ccc(C(=O)c2ccc(CC(=O)O)n2C)cc1 [Tolmetin sodium salt dihydrate]
[1]
  Primary Screen Hit: Inactive

## Cc1onc(-c2ccccc2)c1-c1ccc(S(N)(=O)=O)cc1 [Valdecoxib]
Ras-related GTPases
  activity against the GTPases in confirmatory dose response assays (words): inactive

## CC(C)Cc1ccc(C(C)C(=O)O)cc1 (stereo not shown) [ibuprofen]
[3]
  Rac1 membrane localization: did not alter
